The test system of series [1] is CCI-induced static allodynia. In words: CCI-induced static allodynia, paw withdrawal threshold to von Frey hairs. The settings on record: for time of peak antiallodynic actions: post administration, CCI-induced static model; for blockade of static allodynia: alone; for minimum effective dose (MED), blockade of maintenance of static allodynia: administered alone, gabapentin p.o., sildenafil s.c. The format is in vivo, rat. The procedure: Male Sprague Dawley rats (200-250 g), obtained from Charles River, (Margate, Kent, U.K.) were housed in groups of 6. All animals were kept under a 12 h light/dark cycle (lights on at 07 h 00 min) with food and water ad libitum. All experiments were carried out by an observer unaware of drug treatments.
Animals were anaesthetised with isoflurane. The sciatic nerve was ligated as previously described by Bennett and Xie, 1988. Animals were placed on a homeothermic blanket for the duration of the procedure. After surgical preparation the common sciatic nerve was exposed at the middle of the thigh by blunt dissection through biceps femoris. Proximal to the sciatic trifurcation, about 7 mm of nerve was freed of adhering tissue and 4 ligatures (4-0 silk) were tied loosely around it with about 1 mm spacing. The incision was closed in layers and the wound treated with topical antibiotics.
Dose-responses to gabapentin and sildenafil were first performed alone in the CCI model. Combinations were examined following a fixed ratio design. A dose-response to each fixed dose ratio of the combination was performed. On each test day, baseline paw withdrawal thresholds (PWT) to von Frey hairs and paw withdrawal latencies (PWL) to a cotton bud stimulus were determined prior to drug treatment. Gabapentin was administered p.o. directly followed by s.c. administration of sildenafil and PWT and PWL re-examined for up to 5 h. The data are expressed at the 2 h time point for both the static and dynamic data as this timepoint represent the peak antiallodynic effects.
Static allodynia was measured using Semmes-Weinstein von Frey hairs (Stoelting, Illinois, U.S.A.). Animals were placed into wire mesh bottom cages allowing access to the underside of their paws. Animals were habituated to this environment prior to the start of the experiment. Static allodynia was tested by touching the plantar surface of the animals right hind paw with von Frey hairs in ascending order of force (0.7, 1.2, 1.5, 2, 3.6, 5.5, 8.5, 11.8, 15.1 and 29 g) for up to 6 sec. Once a withdrawal response was established, the paw was re-tested, starting with the next descending von Frey hair until no response occurred. The highest force of 29 g lifted the paw as well as eliciting a response, thus represented the cut off point. The lowest amount of force required to elicit a response was recorded as the PWT in grams.

Series [2] deals with CCI-induced dynamic allodynia. Put plainly: CCI-induced dynamic allodynia, paw withdrawal latency to cotton bud stimulus. The format is in vivo, rat. The note with it: for blockade of dynamic allodynia: alone; for minimum effective dose (MED), blockade of maintenance of dynamic allodynia: administered alone, gabapentin p.o., sildenafil s.c.; for time of peak antiallodynic actions: post administration, CCI-induced dynamic model. On the procedure:
Male Sprague Dawley rats (200-250 g), obtained from Charles River, (Margate, Kent, U.K.) were housed in groups of 6. All animals were kept under a 12 h light/dark cycle (lights on at 07 h 00 min) with food and water ad libitum. All experiments were carried out by an observer unaware of drug treatments. Animals were anaesthetised with isoflurane. The sciatic nerve was ligated as previously described by Bennett and Xie, 1988. Animals were placed on a homeothermic blanket for the duration of the procedure. After surgical preparation the common sciatic nerve was exposed at the middle of the thigh by blunt dissection through biceps femoris. Proximal to the sciatic trifurcation, about 7 mm of nerve was freed of adhering tissue and 4 ligatures (4-0 silk) were tied loosely around it with about 1 mm spacing. The incision was closed in layers and the wound treated with topical antibiotics. […] Combinations were examined following a fixed ratio design. A dose-response to each fixed dose ratio of the combination was performed. On each test day, baseline paw withdrawal thresholds (PWT) to von Frey hairs and paw withdrawal latencies (PWL) to a cotton bud stimulus were determined prior to drug treatment. […] Dynamic allodynia was assessed by lightly stroking the plantar surface of the hind paw with a cotton bud. Care was taken to perform this procedure in fully habituated rats that were not active to avoid recording general motor activity. At least three measurements were taken at each time point the mean of which represented the paw withdrawal latency (PWL). […] Thus 15 s effectively represents no withdrawal. A withdrawal response was often accompanied with repeated flinching or licking of the paw. Dynamic allodynia was considered to be present if animals responded to the cotton stimulus before 8 s of stroking.

The test system of series [3] is CCI-induced static allodynia. In words: CCI-induced static allodynia, paw withdrawal threshold to von Frey hairs. The format is in vivo, rat. The note with it: Table 1; ratio 1:0, pregabalin 30 mg/kg alone.

Structures can show the parent of a compound that is named as a salt.

Turning to `CCC[C@@H](C)C[C@H](N)CC(=O)O.Cl`, the melting point – broadly, the temperature of the solid-liquid transition – lay in the range of 142.5 to 142.7 °C.

Molecule `CCCC(C)(C)CC(CN)C(=O)O.Cl` (centres unmarked) had a melting point of 229.5 to 231 °C.

`CCCC[C@@H](C)C[C@H](N)CC(=O)O` (as salt: hydrochloride) gave a melting point of 142.5 to 143.3 °C.

Regarding `CCC[C@@H](C)C[C@H](CN)C(=O)O` (as salt: hydrochloride), the melting point is 226.3 to 228 °C.

`CCCC(C)(C)C[C@H](N)CC(=O)O` (as salt: hydrochloride) (hydrate or solvate): the melting point is 194.2 to 195.2 °C.

`CCCOc1ccc(S(=O)(=O)N2CCN(CC)CC2)cc1-c1nc2c(CC)n(Cc3ccccn3)nc2c(=O)[nH]1` [Compound AA, 3-Ethyl-5-[5-(4-ethyl-piperazine-1-sulfonyl)-2-propoxy-phenyl]-2-pyridin-2-ylmethyl-2,6-dihydro-pyrazolo[4,3-d]pyrimidin-7-one]: the “% reversal of allodynia” value in series [1] (Table 2, ratio 0:1, 30 mg/kg alone (dose column headed Sildenafil)) was found to be 50%. Further, in series [1], the “time of peak antiallodynic actions” value stood at 2 h.

On to `NCC1(CC(=O)O)CCCCC1` [Gabapentin, 1-(aminomethyl)-cyclohexylacetic acid], for which, in series [1] (100 mg/kg p.o.), the “blockade of static allodynia” value is given as “complete blockade”. For the same molecule, the “% reversal of allodynia” value in series [1] (Table 2, ratio 1:0, gabapentin 100 mg/kg alone) worked out at 100%. In series [1], the “minimum effective dose (MED), blockade of maintenance of static allodynia” value amounted to 10 mg/kg and the “time of peak antiallodynic actions” value came out at 2 h. In series [2] (100 mg/kg p.o.), the “blockade of dynamic allodynia” value is reported as “complete blockade”. In series [2], the “minimum effective dose (MED), blockade of maintenance of dynamic allodynia” value worked out at 10 mg/kg and the “time of peak antiallodynic actions” value was determined as 2 h.

With `CC(C)C[C@H](CN)CC(=O)O` [Pregabalin, (S)-(+)-4-amino-3-(2-methylpropyl)butanoic acid], in series [1], the “time of peak antiallodynic actions” value came to 2 h. Besides, the “% reversal of allodynia” value in series [3] is on record as 100%.

Turning to `CCCc1nn(C)c2c(=O)[nH]c(-c3cc(S(=O)(=O)N4CCN(C)CC4)ccc3OCC)nc12` [Sildenafil, 5-[2-ethoxy-5-(4-methyl-1-piperazinylsulphonyl)phenyl]-1-methyl-3-n-propyl-1,6-dihydro-7H-pyrazolo[4,3-d]pyrimidin-7-one], the “blockade of static allodynia” value in series [1] (30 mg/kg s.c.) is about 60%. For the same molecule, in series [1] (Table 1, ratio 0:1, sildenafil 30 mg/kg alone), the “% reversal of allodynia” value turned out to be 50%. In series [1], the “minimum effective dose (MED), blockade of maintenance of static allodynia” value came out at 10 mg/kg and the “time of peak antiallodynic actions” value worked out at 2 h. For the same molecule, the “blockade of dynamic allodynia” value in series [2] (30 mg/kg s.c. (MED)) was found to be 25%. In addition, in series [2], the “minimum effective dose (MED), blockade of maintenance of dynamic allodynia” value is 30 mg/kg and the “time of peak antiallodynic actions” value stood at 2 h.

For the origin of these results see patent publication US7419981B2, “Synergistic combinations of an alpha-2-delta ligand and a cGMP phosphodieterse 5 inhibitor” (Pfizer Inc., priority 2002, dated 2008).
